From US20240158446A1, “CYCLIC COMPOUND HAVING SELECTIVE INHIBITORY ACTION ON KRAS OVER HRAS AND NRAS” (CHUGAI SEIYAKU KABUSHIKI KAISHA, priority 2021, published 2024)

Columns and labels:
[1] = target: GDP-bound KRAS wild-type protein (Homo sapiens, UniProt P01116); test: Binding to KRAS by surface plasmon resonance (SPR), Single Cycle Kinetics; conditions: SPR, Single Cycle Kinetics, 1:1 binding model; GDP-bound KRAS wild-type protein; read-out: KRAS KD
[2] = target: GDP-bound NRAS wild-type protein (Homo sapiens, UniProt P01111); test: Binding to NRAS by surface plasmon resonance (SPR), Single Cycle Kinetics; conditions: SPR; GDP-bound NRAS wild-type protein vs GDP-bound KRAS wild-type protein; KD ratio class
Sequence of GDP-bound NRAS wild-type protein (P01111 whole entry): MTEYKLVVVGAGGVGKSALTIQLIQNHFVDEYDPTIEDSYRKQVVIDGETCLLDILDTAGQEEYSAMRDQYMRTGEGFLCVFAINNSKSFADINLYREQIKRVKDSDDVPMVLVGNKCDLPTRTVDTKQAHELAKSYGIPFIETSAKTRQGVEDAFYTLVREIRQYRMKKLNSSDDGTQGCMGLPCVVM

[3] = target: GDP-bound HRAS wild-type protein (Homo sapiens, UniProt P01112); test: Binding to HRAS by surface plasmon resonance (SPR), Single Cycle Kinetics; conditions: SPR; GDP-bound HRAS wild-type protein vs GDP-bound KRAS wild-type protein; KD ratio class
Sequence of GDP-bound HRAS wild-type protein (P01112 whole entry): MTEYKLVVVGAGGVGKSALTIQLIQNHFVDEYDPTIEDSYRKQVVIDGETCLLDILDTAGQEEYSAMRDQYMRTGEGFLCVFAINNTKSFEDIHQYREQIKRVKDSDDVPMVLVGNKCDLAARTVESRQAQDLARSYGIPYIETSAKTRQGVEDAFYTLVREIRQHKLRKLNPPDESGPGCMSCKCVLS

[4] = test system: human lung cancer strain NCI-H441;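 further: cell proliferation inhibition after four days measured by CellTiter-Glo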

Sequence of GDP-bound KRAS wild-type protein (P01116 whole entry): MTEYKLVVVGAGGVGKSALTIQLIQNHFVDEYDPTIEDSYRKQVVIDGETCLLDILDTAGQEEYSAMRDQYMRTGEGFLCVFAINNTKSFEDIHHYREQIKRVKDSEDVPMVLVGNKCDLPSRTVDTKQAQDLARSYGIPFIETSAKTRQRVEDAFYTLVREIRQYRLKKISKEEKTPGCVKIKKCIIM

Structure (SMILES): CCCOC[C@H]1C(=O)N[C@@H]([C@@H](C)CC)C(=O)N(C)CC(=O)N(C)[C@H]2C/C=C\CCN(C2=O)[C@@H](Cc2ccc(C)cc2)C(=O)N(C)CC(=O)N[C@@H](CCc2cc(F)c(C(F)(F)F)c(F)c2)C(=O)N2C[C@H](OCC)C[C@H]2C(=O)NC2(CC(C)(C)C2)C(=O)N(C)[C@@H](C2CCCC2)C(=O)N(C)[C@H](C(=O)N(C)C)CC(=O)N1C [PP1400, (2S,8S,12R,14S,20S,23S,27S,30S,36S,38Z)-20-cyclopentyl-8-[2-[3,5-difluoro-4-(trifluoromethyl)phenyl]ethyl]-12-ethoxy-N,N,3′,3′,4,19,22,26,32,35-decamethyl-30-[(1S)-1-methylpropyl]-3,6,9,15,18,21,25,28,31,34,42-undecaoxo-27-(propoxymethyl)-2-(p-tolylmethyl)spiro[1,4,7,10,16,19,22,26,29,32,35-undecazatricyclo[34.5.1.0^10,14]dotetracont-38-ene-17,1′-cyclobutane]-23-carboxamide]
- Kd [1]: 0.049 nM
- NRAS/KRAS (ratio of KD value for NRAS to KD value for KRAS) [2]: A (a compound having 10 or more and less than 20 is denoted as A)
- HRAS/KRAS (ratio of KD value for HRAS to KD value for KRAS) [3]: B (a compound having 3 or more and less than 10 is denoted as B)
- IC50 [4]: 5.1 nM

Structure (SMILES): CC[C@H](C)[C@@H]1NC(=O)[C@H](CC2CC2)N(C)C(=O)C[C@@H](C(=O)N(C)C)N(C)C(=O)[C@H](C2CCCC2)N(C)C(=O)C2(CCC2)NC(=O)[C@H](CCC(F)F)N(C)C(=O)[C@H](CCc2cc(F)c(C(F)(F)F)c(F)c2)NC(=O)CN(C)C(=O)[C@H](Cc2ccc(C(F)(F)F)cc2)N2CC/C=C\C[C@@H](C2=O)N(C)C(=O)CN(C)C1=O [PP1402]
- Kd [1]: 0.3 nM
- NRAS/KRAS (ratio of KD value for NRAS to KD value for KRAS) [2]: A (a compound having 10 or more and less than 20 is denoted as A)
- HRAS/KRAS (ratio of KD value for HRAS to KD value for KRAS) [3]: A (a compound having 10 or more and less than 20 is denoted as A)
- IC50 [4]: 82 nM

Structure (SMILES): CC[C@H](C)[C@@H]1NC(=O)[C@H](CC2CC2)N(C)C(=O)C[C@@H](C(=O)N(C)C)N(C)C(=O)[C@H](C2CCCC2)N(C)C(=O)C2(CCC2)NC(=O)[C@H](CC(F)F)N(C)C(=O)[C@H](CCc2cc(F)c(C(F)(F)F)c(F)c2)NC(=O)CN(C)C(=O)[C@H](Cc2ccc(C(F)(F)F)cc2)N2CC/C=C\C[C@@H](C2=O)N(C)C(=O)CN(C)C1=O [PP1403]
- Kd [1]: 0.6 nM
- NRAS/KRAS (ratio of KD value for NRAS to KD value for KRAS) [2]: AA (a compound having 20 or more is denoted as AA)
- HRAS/KRAS (ratio of KD value for HRAS to KD value for KRAS) [3]: A (a compound having 10 or more and less than 20 is denoted as A)
- IC50 [4]: 111 nM

Structure (SMILES): CC[C@H](C)[C@@H]1NC(=O)[C@H](CC2CC2)N(C)C(=O)C[C@@H](C)N(C)C(=O)[C@H](C2CCCC2)N(C)C(=O)C2(CCC2)NC(=O)[C@H](CCC(F)F)N(C)C(=O)[C@H](CCc2cc(F)c(C(F)(F)F)c(F)c2)NC(=O)CN(C)C(=O)[C@H](Cc2ccc(C(F)(F)F)cc2)N2CC/C=C\C[C@@H](C2=O)N(C)C(=O)CN(C)C1=O [PP1404]
- Kd [1]: 4.8 nM
- NRAS/KRAS (ratio of KD value for NRAS to KD value for KRAS) [2]: A (a compound having 10 or more and less than 20 is denoted as A)
- HRAS/KRAS (ratio of KD value for HRAS to KD value for KRAS) [3]: A (a compound having 10 or more and less than 20 is denoted as A)
- IC50 [4]: 498 nM

Structure (SMILES): CC[C@H](C)[C@@H]1NC(=O)[C@H](CC2CC2)N(C)C(=O)C[C@@H](C)N(C)C(=O)[C@H](C2CCCC2)N(C)C(=O)C2(CCC2)NC(=O)[C@H](CC(F)F)N(C)C(=O)[C@H](CCc2cc(F)c(C(F)(F)F)c(F)c2)NC(=O)CN(C)C(=O)[C@H](Cc2ccc(C(F)(F)F)cc2)N2CC/C=C\C[C@@H](C2=O)N(C)C(=O)CN(C)C1=O [PP1405]
- Kd [1]: 8.5 nM
- NRAS/KRAS (ratio of KD value for NRAS to KD value for KRAS) [2]: A (a compound having 10 or more and less than 20 is denoted as A)
- HRAS/KRAS (ratio of KD value for HRAS to KD value for KRAS) [3]: A (a compound having 10 or more and less than 20 is denoted as A)
- IC50 [4]: 466 nM

Structure (SMILES): CCO[C@@H]1C[C@H]2C(=O)NC3(CCC3)C(=O)N(C)[C@@H](C3CCCC3)C(=O)N(C)[C@H](C(=O)N(C)C)CC(=O)N(C)[C@@H](CC3CC3)C(=O)N[C@@H]([C@@H](C)CC)C(=O)NCC(=O)N(C)[C@H]3C/C=C\CCN(C3=O)[C@@H](Cc3ccc(C(F)(F)F)cc3)C(=O)N(C)CC(=O)N[C@@H](CCc3cc(F)c(C(F)(F)F)c(F)c3)C(=O)N2C1 [PP1406, (2S,8S,12R,14S,20S,23S,27S,30S,36S,38Z)-20-cyclopentyl-27-(cyclopropylmethyl)-8-[2-[3,5-difluoro-4-(trifluoromethyl)phenyl]ethyl]-12-ethoxy-N,N,4,19,22,26,35-heptamethyl-30-[(1S)-1-methylpropyl]-3,6,9,15,18,21,25,28,31,34,42-undecaoxo-2-[[4-(trifluoromethyl)phenyl]methyl]spiro[1,4,7,10,16,19,22,26,29,32,35-undecazatricyclo[34.5.1.0^10,14]dotetracont-38-ene-17,1′-cyclobutane]-23-carboxamide]
- Kd [1]: 0.072 nM
- NRAS/KRAS (ratio of KD value for NRAS to KD value for KRAS) [2]: A (a compound having 10 or more and less than 20 is denoted as A)
- HRAS/KRAS (ratio of KD value for HRAS to KD value for KRAS) [3]: B (a compound having 3 or more and less than 10 is denoted as B)
- IC50 [4]: 10.9 nM

Structure (SMILES): CCO[C@@H]1C[C@H]2C(=O)NC3(CCC3)C(=O)N(C)[C@@H](C3CCCC3)C(=O)N(C)[C@H](C(=O)N(C)C)CC(=O)N(C)[C@@H](CC3CC3)C(=O)N[C@@H]([C@@H](C)CC)C(=O)N(C)CC(=O)N(C)[C@H]3C/C=C\CCN(C3=O)[C@@H](Cc3ccc(C)cc3)C(=O)N(C)CC(=O)N[C@@H](CCc3cc(F)c(C(F)(F)F)c(F)c3)C(=O)N2C1 [PP1407, (2S,8S,12R,14S,20S,23S,27S,30S,36S,38Z)-20-cyclopentyl-27-(cyclopropylmethyl)-8-[2-[3,5-difluoro-4-(trifluoromethyl)phenyl]ethyl]-12-ethoxy-N,N,4,19,22,26,32,35-octamethyl-30-[(1S)-1-methylpropyl]-3,6,9,15,18,21,25,28,31,34,42-undecaoxo-2-(p-tolylmethyl)spiro[1,4,7,10,16,19,22,26,29,32,35-undecazatricyclo[34.5.1.0^10,14]dotetracont-38-ene-17,1′-cyclobutane]-23-carboxamide]
- Kd [1]: 0.074 nM
- NRAS/KRAS (ratio of KD value for NRAS to KD value for KRAS) [2]: A (a compound having 10 or more and less than 20 is denoted as A)
- HRAS/KRAS (ratio of KD value for HRAS to KD value for KRAS) [3]: A (a compound having 10 or more and less than 20 is denoted as A)
- IC50 [4]: 18.7 nM

Structure (SMILES): CCO[C@@H]1C[C@H]2C(=O)NC3(CCC3)C(=O)N(C)[C@@H](C3CCCC3)C(=O)N(C)[C@H](C(=O)N3CCOCC3)CC(=O)N(C)[C@@H](CC3CC3)C(=O)N[C@@H]([C@@H](C)CC)C(=O)N(C)CC(=O)N(C)[C@H]3C/C=C\CCN(C3=O)[C@@H](Cc3ccc(C)cc3)C(=O)N(C)CC(=O)N[C@@H](CCc3cc(F)c(C(F)(F)F)c(F)c3)C(=O)N2C1 [PP1408]
- Kd [1]: 0.22 nM
- NRAS/KRAS (ratio of KD value for NRAS to KD value for KRAS) [2]: A (a compound having 10 or more and less than 20 is denoted as A)
- HRAS/KRAS (ratio of KD value for HRAS to KD value for KRAS) [3]: A (a compound having 10 or more and less than 20 is denoted as A)
- IC50 [4]: 37.6 nM
